Results reported in US4187292A, “Antibiotics produced from the microorganism nocardice” (Takeda Chemical Industries, Ltd., priority 1977, dated 1980).
Values after ≈ are worked out from the molar mass of the structure shown.

Assays:
[1] = system: Alcaligenes faecalis; assay: Antimicrobial activity, serial dilution method; format: cell-based; details: IFO 13111; Trypticase-soy agar
Description: (§1) The antimicrobial activities of Antibiotics C-14919 E-1 and E-2 were assayed by the serial dilution method using Trypticase-soy agar (BBL), glucose nutrient agar and glycerol nutrient agar as test media (Table 5). In addition, the activities against Tetrahymena pyriformis W were determined by the serial dilution method using the assay medium [Proteose-peptone 20 g, yeast extract 1 g, glucose 2 g, distilled water 1000 ml, 1 M-phosphate buffer (pH 7.0) 10 ml].

[2] = system: Bacillus brevis; assay: Antimicrobial activity, serial dilution method; format: cell-based; details: IFO 3331; Trypticase-soy agar
Description: as §1

[3] = system: Bacillus cereus; assay: Antimicrobial activity, serial dilution method; format: cell-based; details: IFO 3514; Trypticase-soy agar
Description: as §1

[4] = system: Bacillus megaterium; assay: Antimicrobial activity, serial dilution method; format: cell-based; details: IFO 12108; Trypticase-soy agar
Description: as §1

[5] = system: Bacillus pumilus; assay: Antimicrobial activity, serial dilution method; format: cell-based; details: IFO 3813; Trypticase-soy agar
Description: as §1

[6] = system: Bacillus subtilis 6633; assay: Antimicrobial activity, serial dilution method; format: cell-based; details: IFO 3134; Trypticase-soy agar
Description: as §1

[7] = system: Bacillus subtilis PCI219; assay: Antimicrobial activity, serial dilution method; format: cell-based; details: IFO 3513; Trypticase-soy agar
Description: as §1

[8] = system: Escherichia coli K-12; assay: Antimicrobial activity, serial dilution method; format: cell-based; details: IFO 3301; Trypticase-soy agar
Description: as §1

[9] = system: Micrococcus flavus; assay: Antimicrobial activity, serial dilution method; format: cell-based; details: IFO 3242; Trypticase-soy agar
Description: as §1

[10] = system: Proteus vulgaris; assay: Antimicrobial activity, serial dilution method; format: cell-based; details: IFO 3045; Trypticase-soy agar
Description: as §1

[11] = system: Pseudomonas aeruginosa; assay: Antimicrobial activity, serial dilution method; format: cell-based; details: IFO 3080; Trypticase-soy agar
Description: as §1

[12] = system: Salmonella typhimurium; assay: Antimicrobial activity, serial dilution method; format: cell-based; details: IFO 12529; Trypticase-soy agar
Description: as §1

[13] = system: Sarcina lutea; assay: Antimicrobial activity, serial dilution method; format: cell-based; details: IFO 3232; Trypticase-soy agar
Description: as §1

[14] = system: Serratia marcescens; assay: Antimicrobial activity, serial dilution method; format: cell-based; details: IFO 3046; Trypticase-soy agar
Description: as §1

[15] = system: Staphylococcus aureus 209P; assay: Antimicrobial activity, serial dilution method; format: cell-based; details: IFO 12732; Trypticase-soy agar
Description: as §1

[16] = system: Candida albicans; assay: Antimicrobial activity, serial dilution method (Trypticase-soy agar); format: cell-based; details: IFO 0583
Description: as §1

[17] = system: Aspergillus niger; assay: Antimicrobial activity, serial dilution method; format: cell-based; details: IFO 4066; Glucose nutrient agar
Description: as §1
(§2) **Glucose nutrient agar

[18] = system: Candida krusei; assay: Antimicrobial activity, serial dilution method; format: cell-based; details: IFO 1395; Glucose nutrient agar
Description: as §1, §2

[19] = system: Candida pseudotropicalis; assay: Antimicrobial activity, serial dilution method; format: cell-based; details: IFO 0617; Glucose nutrient agar
Description: as §1, §2

[20] = system: Candida tropicalis; assay: Antimicrobial activity, serial dilution method; format: cell-based; details: IFO 1400; Glucose nutrient agar
Description: as §1, §2

[21] = system: Candida utilis; assay: Antimicrobial activity, serial dilution method; format: cell-based; details: IFO 0619; Glucose nutrient agar
Description: as §1, §2

[22] = system: Candida; assay: Antimicrobial activity, serial dilution method; format: cell-based; details: IFO 1396; Glucose nutrient agar
Description: as §1, §2

[23] = system: Cryptococcus neoformans; assay: Antimicrobial activity, serial dilution method; format: cell-based; details: IFO 0410; Glucose nutrient agar
Description: as §1, §2

[24] = system: Hormodendrum pedrosoi; assay: Antimicrobial activity, serial dilution method; format: cell-based; details: IFO 6071; Glucose nutrient agar
Description: as §1, §2

[25] = system: Microsporum canis; assay: Antimicrobial activity, serial dilution method; format: cell-based; details: IFO 7863; Glucose nutrient agar
Description: as §1, §2

[26] = system: Microsporum cookei; assay: Antimicrobial activity, serial dilution method; format: cell-based; details: IFO 8303; Glucose nutrient agar
Description: as §1, §2

[27] = system: Penicillium chrysogenum; assay: Antimicrobial activity, serial dilution method; format: cell-based; details: IFO 4626; Glucose nutrient agar
Description: as §1, §2

[28] = system: Saccharomyces cerevisiae; assay: Antimicrobial activity, serial dilution method; format: cell-based; details: IFO 0209; Glucose nutrient agar
Description: as §1, §2

[29] = system: Trychophyton rubrum; assay: Antimicrobial activity, serial dilution method; format: cell-based; details: IFO 5467; Glucose nutrient agar
Description: as §1, §2

[30] = system: Candida albicans; assay: Antimicrobial activity, serial dilution method (Glucose nutrient agar); format: cell-based; details: IFO 0583
Description: as §1, §2

[31] = system: Mycobacterium avium; assay: Antimicrobial activity, serial dilution method; format: cell-based; details: Glycerol nutrient agar
Description: as §1
(§3) ***Glycerol nutrient agar

[32] = system: Mycobacterium phlei; assay: Antimicrobial activity, serial dilution method; format: cell-based; details: Glycerol nutrient agar
Description: as §1, §3

[33] = system: Tetrahymena pyriformis W; assay: Activity against Tetrahymena pyriformis W, serial dilution method; format: cell-based; details: Proteose-peptone solution, pH 7.0
Description: as §1
****Proteose-peptone solution

[34] = Acute toxicity test in mice; format: in vivo; details: intraperitoneal administration
Excerpt: The assumed LD50 as determined by intraperitoneal administration of C-14919 E-1 and E-2 in an acute toxicity test using mice as test animals are as follows.

[35] = system: P388 leukemia; assay: Therapeutic activity against P388 leukemia in mice; format: in vivo; details: for antitumour activity in terms of the extension of life spans: 5 mg/kg/day, intraperitoneally, consecutive days, P388 1×10^6 cells/animal i.p. transplanted; for life-extending effect upon tumour-bearing mammals: e.g. mouse
Description: The therapeutic activity (intraperitoneally administered for a consecutive days) of C-14919 E-1 and E-2 against P388 leukemia in mice (1×10^6 cells/animal, mouse, itraperitoneally transplanted) was investigated. The antitumour activity in terms of the extension of life spans was 144% at the dose level of 5 mg/kg/day.

[36] = Solubility; format: physicochemical
[37] = Acid, neutral or basic nature / lipophilicity; format: physicochemical
[38] = Stability in solution; format: physicochemical
[39] = system: Gram-positive bacteria, fungi and yeasts; assay: Antimicrobial spectrum (summary of Table 5); format: cell-based; details: antimicrobial spectrum of Table 5
Description: as §1

[40] = Room temp., basic solution/conditions
[41] = Room temp., neutral and weakly acidic solutions/conditions

Compound: COC1C[C@H](C)[C@@H](OC)C2=CC(=O)C=C(NC(=O)/C(C)=C/C=C\[C@H](C)C(OC(N)=O)/C(C)=C/[C@@H](C)[C@@H]1OC)C2=O (some centres unmarked) [C-14919 E-1]
- MIC [1]: > 100 µg/mL
- MIC [2]: 50 µg/mL (≈ 89.5 µM)
- MIC [3]: > 100 µg/mL
- MIC [4]: 50 µg/mL (≈ 89.5 µM)
- MIC [5]: 50 µg/mL (≈ 89.5 µM)
- MIC [6]: 50 µg/mL (≈ 89.5 µM)
- MIC [7]: 100 µg/mL (≈ 179 µM)
- MIC [8]: > 100 µg/mL
- MIC [9]: 50 µg/mL (≈ 89.5 µM)
- MIC [10]: > 100 µg/mL
- MIC [11]: > 100 µg/mL
- MIC [12]: > 100 µg/mL
- MIC [13]: 50 µg/mL (≈ 89.5 µM)
- MIC [14]: > 100 µg/mL
- MIC [15]: > 100 µg/mL
- MIC [16]: 25 µg/mL (≈ 44.7 µM)
- MIC [17]: 100 µg/mL (≈ 179 µM)
- MIC [18]: > 100 µg/mL
- MIC [19]: 100 µg/mL (≈ 179 µM)
- MIC [20]: > 100 µg/mL
- MIC [21]: > 100 µg/mL
- MIC [22]: 50 µg/mL (≈ 89.5 µM)
- MIC [23]: > 100 µg/mL
- MIC [24]: > 100 µg/mL
- MIC [25]: > 100 µg/mL
- MIC [26]: > 100 µg/mL
- MIC [27]: 50 µg/mL (≈ 89.5 µM)
- MIC [28]: 100 µg/mL (≈ 179 µM)
- MIC [29]: > 100 µg/mL
- MIC [30]: 50 µg/mL (≈ 89.5 µM)
- MIC [31]: > 100 µg/mL
- MIC [32]: > 100 µg/mL
- MIC [33]: 10 µg/mL (≈ 17.9 µM)
- assumed LD50 [34]: 50 to 100 mg/kg
- antitumour activity in terms of the extension of life spans [35]: 144%
- life-extending effect upon tumour-bearing mammals [35]: life-extending effect
- Solubility in acetone [36]: Soluble
- Solubility in benzene [36]: Sparingly soluble
- Solubility in butanol [36]: Soluble
- Solubility in chloroform [36]: Soluble
- Solubility in diethyl ether [36]: Sparingly soluble
- Solubility in dimethylsulfoxide [36]: Readily soluble
- Solubility in ethanol [36]: Soluble
- Solubility in ethyl acetate [36]: Soluble
- Solubility in hexane [36]: Insoluble
- Solubility in methanol [36]: Soluble
- Solubility in methyl isobutyl ketone [36]: Soluble
- Solubility in petroleum ether [36]: Insoluble
- Solubility in water [36]: Insoluble
- Acid, neutral or basic [37]: a neutral substance
- lipophilicity [37]: lipophyl
- Stability ([38]; 80° C., 1 hr.): unstable
- Stability [38, 40]: Unstable
- Stability [38, 41]: Stable
- antimicrobial activity [39]: display activity against Gram-positive bacteria, fungi and yeasts

Compound: COC1CC(C)C(OC)c2cc(O)cc(c2O)NC(=O)/C(C)=C/C=C\C(C)C(OC(N)=O)/C(C)=C/C(C)C1OC (centres unmarked) [C-14919 E-2]
- MIC [1]: 100 µg/mL (≈ 178 µM)
- MIC [2]: 50 µg/mL (≈ 89.2 µM)
- MIC [3]: > 100 µg/mL
- MIC [4]: 50 µg/mL (≈ 89.2 µM)
- MIC [5]: 100 µg/mL (≈ 178 µM)
- MIC [6]: 100 µg/mL (≈ 178 µM)
- MIC [7]: > 100 µg/mL
- MIC [8]: > 100 µg/mL
- MIC [9]: 50 µg/mL (≈ 89.2 µM)
- MIC [10]: > 100 µg/mL
- MIC [11]: > 100 µg/mL
- MIC [12]: > 100 µg/mL
- MIC [13]: 50 µg/mL (≈ 89.2 µM)
- MIC [14]: > 100 µg/mL
- MIC [15]: > 100 µg/mL
- MIC [16]: 6.25 µg/mL (≈ 11.1 µM)
- MIC [17]: 100 µg/mL (≈ 178 µM)
- MIC [18]: > 100 µg/mL
- MIC [19]: 100 µg/mL (≈ 178 µM)
- MIC [20]: > 100 µg/mL
- MIC [21]: > 100 µg/mL
- MIC [22]: 25 µg/mL (≈ 44.6 µM)
- MIC [23]: > 100 µg/mL
- MIC [24]: > 100 µg/mL
- MIC [25]: > 100 µg/mL
- MIC [26]: > 100 µg/mL
- MIC [27]: 25 µg/mL (≈ 44.6 µM)
- MIC [28]: 100 µg/mL (≈ 178 µM)
- MIC [29]: > 100 µg/mL
- MIC [30]: 25 µg/mL (≈ 44.6 µM)
- MIC [31]: > 100 µg/mL
- MIC [32]: > 100 µg/mL
- MIC [33]: 10 µg/mL (≈ 17.8 µM)
- assumed LD50 [34]: 25 to 100 mg/kg
- antitumour activity in terms of the extension of life spans [35]: 144%
- life-extending effect upon tumour-bearing mammals [35]: life-extending effect
- Solubility in acetone [36]: Soluble
- Solubility in benzene [36]: Sparingly soluble
- Solubility in butanol [36]: Soluble
- Solubility in chloroform [36]: Sparingly soluble
- Solubility in diethyl ether [36]: Sparingly soluble
- Solubility in dimethylsulfoxide [36]: Readily soluble
- Solubility in ethanol [36]: Soluble
- Solubility in ethyl acetate [36]: Soluble
- Solubility in hexane [36]: Insoluble
- Solubility in methanol [36]: Soluble
- Solubility in methyl isobutyl ketone [36]: Soluble
- Solubility in petroleum ether [36]: Insoluble
- Solubility in water [36]: Sparingly soluble
- Acid, neutral or basic [37]: a neutral substance
- lipophilicity [37]: lipophyl
- Stability ([38]; 80° C., 1 hr.): unstable
- Stability [38, 40]: Unstable
- Stability [38, 41]: Stable
- antimicrobial activity [39]: display activity against Gram-positive bacteria, fungi and yeasts
